From patent publication US20250122225A1, “MASP-2 INHIBITORS AND METHODS OF USE” (Omeros Corporation, priority 2023, published 2025)
Structures can show the parent of a compound that is named as a salt.

Columns and labels:
MASP-2 (CCP1-CCP2-SP) = molecular target: T1, MASP-2 (CCP1-CCP2-SP) (Homo sapiens, UniProt O00187); assay: Enzymatic assay for MASP-2 inhibitory activity (fluorogenic substrate); assay type: biochemical
T1 construct: 15 μL of Enzyme MASP-2 (CCP1-CCP2-SP) in Assay Buffer
Procedure, shortened: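 Fluorescence was normalized between no-enzyme and DMSO-only controls to derive % activity, with IC50 taken as equivalent to Ki except for tight-binding inhibitors. Reactions ran 20 min at room temperature in HEPES pH 7.4/NaCl/Tween 20 buffer, using the C2-derived fluorogenic substrate, before acetic acid stop.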

human α-thrombin = molecular target: T2, human α-thrombin (Homo sapiens, UniProt P00734); assay: Enzymatic assay for thrombin (fluorogenic peptide substrate Boc-VPR-AMC); assay type: biochemical
T2 construct: enzyme (human α-thrombin (BioPharm® Lab.)) in assay buffer; purchased BioPharm® Lab
Procedure, shortened: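 Assay conditions kept the reaction linear in time, enzyme and substrate, so IC50 approximated Ki apart from tight- or slow-binding cases. Boc-VPR-AMC cleavage by human α-thrombin proceeded 20 min at room temperature in Hepes pH 7.4/NaCl/Tween 20 buffer, then was acid-quenched and read by fluorescence.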

T1 sequence (O00187 445-686 limits assumed): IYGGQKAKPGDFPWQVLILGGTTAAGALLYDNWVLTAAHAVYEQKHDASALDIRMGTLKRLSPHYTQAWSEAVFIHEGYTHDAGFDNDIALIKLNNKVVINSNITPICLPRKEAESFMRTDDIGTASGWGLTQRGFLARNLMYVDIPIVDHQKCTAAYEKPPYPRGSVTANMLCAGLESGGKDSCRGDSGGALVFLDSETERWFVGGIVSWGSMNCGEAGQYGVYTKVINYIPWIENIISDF
T1 sequence (O00187 287-444 partner limits assumed): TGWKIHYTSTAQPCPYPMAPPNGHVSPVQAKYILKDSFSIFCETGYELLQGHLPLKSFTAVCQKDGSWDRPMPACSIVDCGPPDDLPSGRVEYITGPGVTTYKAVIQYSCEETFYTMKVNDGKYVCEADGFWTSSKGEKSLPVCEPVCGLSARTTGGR

SMILES | Ki (MASP-2 (CCP1-CCP2-SP)) [nM] | Ki (human α-thrombin) [nM]
N=C(N)c1ccc(CNC(=O)[C@@H]2CCc3c(Cl)nc(NCCc4ccccc4)c(=O)n32)cc1 [Compound 250] | 500 to 2500 | 2500 to 10000
O=C(NCc1cc2cnccc2[nH]1)[C@@H]1CCc2c(Cl)nc(NCC3(c4ccccc4)COC3)c(=O)n21 [Compound 251] | < 500 | 500 to 2500
O=C(NCc1cc2c(s1)CNC2)[C@@H]1CCc2cnc(NCC3(Cc4ccccc4)CCCCC3)c(=O)n21 [Compound 252] | < 500 | 2500 to 10000
Cc1ccc(C)c([C@@H](C)Nc2ncc3n(c2=O)[C@H](C(=O)NCc2cc4c(s2)CNC4)CC3)c1 [Compound 253, (S)—N-((5,6-dihydro-4H-thieno[2,3-c]pyrrol-2-yl)methyl)-3-(((R)-1-(2,5-dimethylphenyl)ethyl)amino)-4-oxo-4,6,7,8-tetrahydropyrrolo[1,2-a]pyrazine-6-carboxamide] | < 500 | < 500
O=C(NCc1cc2c(s1)CNC2)[C@@H]1CCc2cnc(N[C@@H]3CCc4ccccc43)c(=O)n21 [Compound 254, (S)-3-(((R)-2,3-dihydro-1H-inden-1-yl)amino)-N-((5,6-dihydro-4H-thieno[2,3-c]pyrrol-2-yl)methyl)-4-oxo-4,6,7,8-tetrahydropyrrolo[1,2-a]pyrazine-6-carboxamide] | < 500 | 500 to 2500
CC(C)[C@@H](Nc1ncc2n(c1=O)[C@H](C(=O)NCc1cc3c(s1)CNC3)CC2)c1ccccc1 [Compound 255] | < 500 | < 500
O=C(NCc1cc2c(s1)CNC2)[C@@H]1CCc2cnc(N[C@@H](c3ccccc3)C3CCC3)c(=O)n21 [Compound 256] | < 500 | < 500
CCC[C@@H](Nc1ncc2n(c1=O)[C@H](C(=O)NCc1cc3c(s1)CNC3)CC2)c1ccccc1 [Compound 258] | < 500 | < 500
O=C(NCc1cc2c(s1)CNC2)[C@@H]1CCc2cnc(N[C@@H]3CCc4ccc(-c5ccccc5)cc43)c(=O)n21 [Compound 260, (S)-N-((5,6-dihydro-4H-thieno[2,3-c]pyrrol-2-yl)methyl)-4-oxo-3-(((R)-6-phenyl-2,3-dihydro-1H-inden-1-yl)amino)-4,6,7,8-tetrahydropyrrolo[1,2-a]pyrazine-6-carboxamide trifluoroacetate] | < 500 | 2500 to 10000
O=C(NCc1cc2c(s1)CNC2)[C@@H]1CCc2cnc(NC3(c4ccccc4)CCC3)c(=O)n21 [Compound 261, (S)-N-((5,6-dihydro-4H-thieno[2,3-c]pyrrol-2-yl)methyl)-4-oxo-3-((1-phenylcyclobutyl)amino)-4,6,7,8-tetrahydropyrrolo[1,2-a]pyrazine-6-carboxamide trifluoroacetate] | < 500 | < 500
CCc1cc(CNc2ncc3n(c2=O)[C@H](C(=O)NCc2cc4c(s2)CNC4)CC3)cc(-c2ccccc2)c1 [Compound 262] | < 500 | 500 to 2500
CC[C@@H](Nc1ncc2n(c1=O)[C@H](C(=O)NCc1cc3c(s1)CNC3)CC2)c1ccc2ccccc2c1 [Compound 263, (S)-N-((5,6-dihydro-4H-thieno[2,3-c]pyrrol-2-yl)methyl)-3-(((R)-1-(naphthalen-2-yl)propyl)amino)-4-oxo-4,6,7,8-tetrahydropyrrolo[1,2-a]pyrazine-6-carboxamide trifluoroacetate] | < 500 | 500 to 2500
CC(C)(C)[C@@H](Nc1ncc2n(c1=O)[C@H](C(=O)NCc1cc3c(s1)CNC3)CC2)c1ccccc1 [Compound 264, (S)-N-((5,6-dihydro-4H-thieno[2,3-c]pyrrol-2-yl)methyl)-3-(((R)-2,2-dimethyl-1-phenylpropyl)amino)-4-oxo-4,6,7,8-tetrahydropyrrolo[1,2-a]pyrazine-6-carboxamide trifluoroacetate] | < 500 | < 500
CC[C@@H](Nc1ncc2n(c1=O)[C@H](C(=O)NCc1cc3c(s1)CNC3)CC2)c1ccccc1C [Compound 265, (S)-N-((5,6-dihydro-4H-thieno[2,3-c]pyrrol-2-yl)methyl)-4-oxo-3-(((R)-1-(o-tolyl)propyl)amino)-4,6,7,8-tetrahydropyrrolo[1,2-a]pyrazine-6-carboxamide trifluoroacetate] | < 500 | < 500
CC[C@@H](Nc1ncc2n(c1=O)[C@H](C(=O)NCc1cc3c(s1)CNC3)CC2)c1ccc(C)cc1 [Compound 266, (S)-N-((5,6-dihydro-4H-thieno[2,3-c]pyrrol-2-yl)methyl)-4-oxo-3-(((R)-1-(p-tolyl)propyl)amino)-4,6,7,8-tetrahydropyrrolo[1,2-a]pyrazine-6-carboxamide trifluoroacetate] | < 500 | < 500
CC[C@@H](Nc1ncc2n(c1=O)[C@H](C(=O)NCc1cc3c(s1)CNC3)CC2)c1cccc(-c2ccccc2)c1 [Compound 267, (S)-3-(((R)-1-([1,1'-biphenyl]-3-yl)propyl)amino)-N-((5,6-dihydro-4H-thieno[2,3-c]pyrrol-2-yl)methyl)-4-oxo-4,6,7,8-tetrahydropyrrolo[1,2-a]pyrazine-6-carboxamide trifluoroacetate] | < 500 | 500 to 2500
CCc1cccc([C@@H](CC)Nc2ncc3n(c2=O)[C@H](C(=O)NCc2cc4c(s2)CNC4)CC3)c1 [Compound 268, (S)-N-((5,6-dihydro-4H-thieno[2,3-c]pyrrol-2-yl)methyl)-3-(((R)-1-(3-ethylphenyl)propyl)amino)-4-oxo-4,6,7,8-tetrahydropyrrolo[1,2-a]pyrazine-6-carboxamide trifluoroacetate] | < 500 | < 500
C[C@@H](NC(=O)[C@@H]1CCc2cnc(N[C@@H](c3ccccc3)C(C)(C)C)c(=O)n21)c1cc2c(s1)CNC2 [Compound 269, (S)-N-((R)-1-(5,6-dihydro-4H-thieno[2,3-c]pyrrol-2-yl)ethyl)-3-(((R)-2,2-dimethyl-1-phenylpropyl)amino)-4-oxo-4,6,7,8-tetrahydropyrrolo[1,2-a]pyrazine-6-carboxamide trifluoroacetate] | < 500 | 2500 to 10000
C[C@H](NC(=O)[C@@H]1CCc2cnc(N[C@@H](c3ccccc3)C(C)(C)C)c(=O)n21)c1cc2c(s1)CNC2 [Compound 270, (S)-N-((S)-1-(5,6-dihydro-4H-thieno[2,3-c]pyrrol-2-yl)ethyl)-3-(((R)-2,2-dimethyl-1-phenylpropyl)amino)-4-oxo-4,6,7,8-tetrahydropyrrolo[1,2-a]pyrazine-6-carboxamide trifluoroacetate] | 2500 to 10000 | 10000 to 25000
O=C(NCc1cc2c(s1)CNC2)[C@@H]1CCc2cnc(NCC3(c4ccccc4)CCC3)c(=O)n21 [Compound 271, (S)-N-((5,6-dihydro-4H-thieno[2,3-c]pyrrol-2-yl)methyl)-4-oxo-3-(((1-phenylcyclobutyl)methyl)amino)-4,6,7,8-tetrahydropyrrolo[1,2-a]pyrazine-6-carboxamide trifluoroacetate] | < 500 | < 500
C[C@@H](NC(=O)[C@@H]1CCc2cnc(N[C@@H](c3ccccc3)C3CC3)c(=O)n21)c1cc2c(s1)CNC2 [Compound 272, (S)-3-(((R)-cyclopropyl(phenyl)methyl)amino)-N-((R)-1-(5,6-dihydro-4H-thieno[2,3-c]pyrrol-2-yl)ethyl)-4-oxo-4,6,7,8-tetrahydropyrrolo[1,2-a]pyrazine-6-carboxamide trifluoroacetate] | < 500 | 2500 to 10000
C[C@H](NC(=O)[C@@H]1CCc2cnc(N[C@@H](c3ccccc3)C3CC3)c(=O)n21)c1cc2c(s1)CNC2 [Compound 273, (S)-3-(((R)-cyclopropyl(phenyl)methyl)amino)-N-((S)-1-(5,6-dihydro-4H-thieno[2,3-c]pyrrol-2-yl)ethyl)-4-oxo-4,6,7,8-tetrahydropyrrolo[1,2-a]pyrazine-6-carboxamide trifluoroacetate] | 2500 to 10000 | > 25000
CC(C)[C@@H](Nc1ncc2n(c1=O)[C@H](C(=O)N[C@H](C)c1cc3c(s1)CNC3)CC2)c1ccccc1 [Compound 274, (S)-N-((R)-1-(5,6-dihydro-4H-thieno[2,3-c]pyrrol-2-yl)ethyl)-3-(((R)-2-methyl-1-phenylpropyl)amino)-4-oxo-4,6,7,8-tetrahydropyrrolo[1,2-a]pyrazine-6-carboxamide trifluoroacetate] | < 500 | 500 to 2500
CC(C)[C@@H](Nc1ncc2n(c1=O)[C@H](C(=O)N[C@@H](C)c1cc3c(s1)CNC3)CC2)c1ccccc1 [Compound 275, (S)-N-((S)-1-(5,6-dihydro-4H-thieno[2,3-c]pyrrol-2-yl)ethyl)-3-(((R)-2-methyl-1-phenylpropyl)amino)-4-oxo-4,6,7,8-tetrahydropyrrolo[1,2-a]pyrazine-6-carboxamide trifluoroacetate] | < 500 | > 25000
CC[C@@H](Nc1ncc2n(c1=O)[C@H](C(=O)N[C@@H](C)c1cc3c(s1)CNC3)CC2)c1ccccc1 [Compound 278] | < 500 | 10000 to 25000
O=C(NCc1cc2c(s1)CNC2)[C@@H]1CCc2cnc(N[C@@H](c3ccccc3)C3CCCC3)c(=O)n21 [Compound 279, (S)-3-(((R)-cyclopentyl(phenyl)methyl)amino)-N-((5,6-dihydro-4H-thieno[2,3-c]pyrrol-2-yl)methyl)-4-oxo-4,6,7,8-tetrahydropyrrolo[1,2-a]pyrazine-6-carboxamide] | < 500 | < 500
